Test results: patent US20250051762A1, “PLATFORM USING DNA-ENCODED SMALL MOLECULE LIBRARIES AND RNA SELECTION TO DESIGN SMALL MOLECULES THAT TARGET RNA” (University of Florida Research Foundation, Incorporated, priority 2021, published 2025)

What was measured:
Format in all cases: cell-based, human
miR-23a = assay: RT-qPCR of mature miR-23a in MDA-MB-231 cells
Method: (§1) Cell lines. Compounds were tested in MDA-MB-231 TNBC cells (HTB-26, ATCC), LNCaP metastatic prostate cancer cells (gifted from Junli Luo lab), MCF-7 (HTB-22, ATCC) breast cancer cells, HeLa cervical adenocarcinoma cells (CCL-2, ATCC), and MCF-10a, a model of healthy breast epithelial cells (CRL-10317, ATCC).
(§2) Cell culture and compound treatment. All cells were maintained at 37° C. with 5% CO2. MDA-MB-231 and LNCaP cells were cultured in RPMI 1640 medium with L-glutamine & 25 mM HEPES (Corning) supplemented with 10% (v/v) fetal bovine serum (FBS; Sigma) and 1× (v/v) Antibiotic-Antimycotic solution (Corning). MCF-7 and HeLa cells were cultured in DMEM medium with 4.5 g/L glucose (Corning), supplemented with 10% FBS, 1× (v/v) Glutagro (Corning), and 1× (v/v) Antibiotic-Antimycotic solution. […]
(§3) Analysis of mRNA abundance: Each cell line was grown as a monolayer in 12- or 24-well plates and treated as described in “Cell culture and compound treatment”. […] Relative abundance of mature miRNAs was calculated by normalizing to RNU6, and relative abundance for pri-miRNAs and mRNAs was calculated by normalizing to 18S ribosomal RNA, using the AAC, method. […]

miR-24-2 = assay: RT-qPCR of mature miR-24-2 in MDA-MB-231 cells
Method: as §1, §2, §3

pri-miR-27a = assay: RT-qPCR of pri- and mature miR-27a in LNCaP cells
Method: as §1, §2, §3

mutant pri-miR-27a = assay: RT-qPCR of miR-27a biogenesis in MCF-10a cells transfected with mutant pri-miR-27a; details: mutant plasmid, 48 h
Source text: (§4) To gauge the specificity of 9 for pri-miR-27a, inhibition of biogenesis was first studied in a cellular model of healthy breast epithelium, MCF-10a, in which miR-27a expression is not detectable (Ct>31). MCF-10a cells were transfected with a plasmid encoding WT pri-miR-27a or mutant in which the two 5′GAG/3′CCC internal loops at and nearby the Drosha processing site were mutated to base pairs. In the absence of compound treatment, both primary miRNA transcripts were processed similarly, generating mature miR-27a, as determined by RT-qPCR.
as §1
(§5) Cell culture and compound treatment. All cells were maintained at 37° C. with 5% CO2. […]
as §3

WT pri-miR-27a = assay: RT-qPCR of miR-27a biogenesis in MCF-10a cells transfected with WT pri-miR-27a; details: WT pri-miR-27a plasmid, 48 h
Source text: as §4, §1, §5, §3

Q: For `C#CCN(CC(N)=O)C(=O)C[C@H](Cc1c[nH]c2ccccc12)NC(=O)[C@@H]1C[C@H](NC(=O)Cn2c(=O)[nH]c3ccccc3c2=O)CN1` [Compound 9], which “effect on levels of mature miR-23a” value (miR-23a) is on record?
A: no effect

Q: And the “effect on levels of mature miR-24-2” value (miR-24-2)?
A: no effect

Q: What about the “dose with significant inhibition of miR-27a processing” value (pri-miR-27a) of the same compound?
A: 100 nM

Q: And the “inhibition of biogenesis of mutated pri-miR-27a” value (mutant pri-miR-27a)?
A: did not inhibit biogenesis

Q: And the “mature miR-27a levels” value (WT pri-miR-27a)?
A: reduction

Q: What about the pri-miR-27a levels (WT pri-miR-27a) of the same compound?
A: increase
